Assay results: patent publication US20020107228A1, “Topical bisphosphonates for prevention of bone resorption” (Merck & Co., Inc, priority 1996, published 2002)

Experiments:
[1] = system: Wistar rats; details: sacrifice 3 weeks after flap
Experimental: 63 Wistar rats were used in this experiment, and were divided into the four groups. Group A: 15 rats received 0.05 mg/kg body weight of alendronate. Group B: 15 rats received 0.25 mg/kg body weight of alendronate. Group C: 15 rats received 0.5 mg/kg body weight of alendronate. Group D was the control group, where 18 rats received saline. The alendronate sodium or saline was administered one week prior to surgery, at the day of surgery before the surgery was performed, and one week following surgery. The drug was administered IV in the dorsal vein of the penis.
In one experiment, one group of rats were anesthetized prior to surgery or alendronate administration using a mixture of 25 mg/kg body weight of KETALAR (Malgene, Lyon France), and 42 mg/kg body weight XYLAZINE (Rampun Bayer, Leverkusen, Germany) intraperitoneally (IP). A portion of these rats also received 25 mg/kg alendronate IP. […] The flap was elevated using a special small periosteal elevator, and readapted immediately in place without sutures. […]
In another set of experiments, alendronate was applied locally at three dose levels using a wet gauze sponge soaked with a solution of 0.15, 0.75, and 1.5 mg/ml on the exposed bone on the experimental side and saline on the exposed bone on the control side for 10 seconds. Since the sponge could absorb 0.1 ml, the maximum calculated amount of drug applied was 0.5 mg/kg body weight. […]

[2] = system: Wistar rats; details: topical, 1 mm GELFOAM pellet soaked in 0.025 ml of 20 mg/ml alendronate in saline, in situ at least two hours; sacrifice 21 days after surgery; vs GELFOAM-only control side
Experimental: Wistar rats were used in the following experiment. The right side of the mandible was used as the experimental side and the left side was used as the control.
The rats were anesthetized prior to surgery using a mixture of 25 mg/kg body weight of KETALAR (Malgene, Lyon, France) and 42 mg/kg body weight of XYLAZINE (Rampun Bayer, Leverkusen, Germany) intraperitoneally (IP).
A mucoperiosteal flap was made on both the buccal and lingual aspects in the region of premolars and molars on both sides of the mandible, two quadrants per rat. The flap was elevated using a special small periosteal elevator. A 1 mm diameter piece of GELFOAM (Upjohn Co., Kalamazoo, Mich.) which was soaked in 0.025 ml alendronate solution (below) was applied to the alveolar bone on both buccal and lingual aspects on the experimental (right) side and the flap was then readapted immediately in place without sutures.
The alendronate solution was prepared by dissolving 20 mg alendronate in 1 ml saline.
A GELFOAM pellet of 1 mm diameter, identical to the alendronate-soaked pellet, but lacking the alendronate, was applied to the alveolar bone in the control side. The entire procedure lasted about 20-40 seconds. The GELFOAM pellets remained in situ for at least two hours while the anesthesia was effected. The rats were fed a soft diet for 24 hours after surgery to avoid flap displacement. […]

[3] = system: alveolar bone resorption; details: Yaffe et al. 1995, cited from earlier work

## NCCCC(O)(P(=O)(O)O)P(=O)(O)O [alendronate, 4-amino-1-hydroxy-butylidene 1,1,-bisphosphonic acid]
[1]; IV, all doses (0.05, 0.25, 0.5 mg/kg), one week before, day of and one week after surgery
  alveolar bone resorption (X-ray microradiography): reduced
[1]; applied locally for 10 seconds on alveolar bone during surgery, wet gauze sponge, 0.15, 0.75 and 1.5 mg/ml
  effect on reducing bone resorption (alveolar bone, X-ray microradiography): no noticeable effect
[2]
  bone resorption (alveolar bone, X-ray microradiography): inhibited
[3]; alendronate solutions applied topically
  inhibiting bone resorption following surgery: not found to be effective
[3]; intravenous administration
  amount of alveolar bone resorption following surgery: reduce
